Read-outs that look alike come from different tables or passages of the source.
What was measured:
[1] = molecular target: T1, human B1R receptor (hB1R) (Homo sapiens, UniProt P46663); test: FLIPR Ca2+ assay on hB1R-transfected CHO K1 cells, antagonistic action; format: cell-based
T1 construct: host or cells: CHO K1 cells
T1 sequence (P46663 1-353): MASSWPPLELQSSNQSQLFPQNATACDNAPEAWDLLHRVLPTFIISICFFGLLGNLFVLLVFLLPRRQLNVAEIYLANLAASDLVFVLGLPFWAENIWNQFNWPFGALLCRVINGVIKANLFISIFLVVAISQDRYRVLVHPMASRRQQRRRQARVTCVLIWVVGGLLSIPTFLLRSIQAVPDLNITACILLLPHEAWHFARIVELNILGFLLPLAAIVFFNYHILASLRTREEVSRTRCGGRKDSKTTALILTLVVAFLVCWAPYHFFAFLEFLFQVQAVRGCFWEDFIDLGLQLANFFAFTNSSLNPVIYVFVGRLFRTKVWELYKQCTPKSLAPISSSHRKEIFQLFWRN

[2] = molecular target: T2, B1R receptor of the rat (rB1R) (Rattus norvegicus, UniProt P97583); test: FLIPR Ca2+ assay on rB1R-transfected CHO K1 cells, antagonistic action; format: cell-based
T2 construct: host or cells: CHO K1 cells
T2 sequence (P97583 1-337): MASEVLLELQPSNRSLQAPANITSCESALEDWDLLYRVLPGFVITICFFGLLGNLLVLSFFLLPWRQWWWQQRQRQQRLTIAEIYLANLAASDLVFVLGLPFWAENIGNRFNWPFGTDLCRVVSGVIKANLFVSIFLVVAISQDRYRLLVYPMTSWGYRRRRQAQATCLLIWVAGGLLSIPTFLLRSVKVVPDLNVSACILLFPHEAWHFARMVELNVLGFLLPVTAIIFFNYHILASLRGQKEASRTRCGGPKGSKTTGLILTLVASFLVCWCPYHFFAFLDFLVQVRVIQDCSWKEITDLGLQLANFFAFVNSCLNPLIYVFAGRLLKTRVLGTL

[3] = CHO-K1, 10 μM test substance, agonist Lys-Des-Arg9-bradykinin 0.5 nM, % of maximum achievable inhibition, read-out: hB1R [10 μM] % inhibition
[4] = CHO-K1, 10 μM test substance, agonist Des-Arg9-bradykinin 100 nM, % of maximum achievable inhibition, read-out: rB1R [10 μM] % inhibition

Structure (SMILES)	inhibition at 10 µM [1, 3] [%]	inhibition at 10 µM [2, 4] [%]	inhibition at 10 µM ([1]; CHO-K1, read-out: hB1R [10 μM] % inhibition) [%]	inhibition at 10 µM ([2]; CHO-K1, read-out: rB1R [10 μM] % inhibition) [%]
CN(CCC1CCC(Cc2ccccc2)(N2CCCC2)CC1)C(=O)CC(NS(=O)(=O)c1ccc2ccccc2c1)c1ccccc1 (centres unmarked) [Compound 56, N-(2-(4-benzyl-4-(pyrrolidin-1-yl)cyclohexyl)ethyl)-N-methyl-3-(naphthalene-2-sulfonamido)-3-phenylpropanamide]	101	100	–	–
O=C(COCC1CCCCN1S(=O)(=O)c1c(Cl)cc(Cl)cc1Cl)NC1CCC(Cc2ccccc2)(N2CCCC2)CC1 (centres unmarked) [Compound 163, N-(4-benzyl-4-(pyrrolidin-1-yl)cyclohexyl)-2-((1-(2,4,6-trichlorophenylsulfonyl)piperidin-2-yl)methoxy)acetamide]	84	93	–	–
CN1CCN(C2(CCc3ccccc3)CCC(CN(C)C(=O)COCC3CCCCN3S(=O)(=O)c3c(Cl)cc(Cl)cc3Cl)CC2)CC1 (centres unmarked) [Compound 161, N-methyl-N-((4-(4-methylpiperazin-1-yl)-4-phenethylcyclohexyl)methyl)-2-((1-(2,4,6-trichlorophenylsulfonyl)piperidin-2-yl)methoxy)acetamide]	101	98	–	–
CN1CCN(C2(CCc3ccccc3)CCN(C(=O)CC3CCCCN3S(=O)(=O)c3cccc(C(F)(F)F)c3)CC2)CC1 (centres unmarked) [Compound 119, 1-(4-(4-methylpiperazin-1-yl)-4-phenethylpiperidin-1-yl)-2-(1-(3-(trifluoromethyl)phenylsulfonyl)piperidin-2-yl)ethanone]	90	69	–	–
COc1cc(C)c(S(=O)(=O)N2CCCCC2CCCC(=O)N2CCC(c3cccc(F)c3)(N3CCN(C)CC3)CC2)c(C)c1 (centres unmarked) [Compound 214, 1-(4-(3-Fluorophenyl)-4-(4-methylpiperazin-1-yl)piperidin-1-yl)-4-(1-(4-methoxy-2,6-dimethylphenylsulfonyl)piperidin-2-yl)butan-1-one]	99	101	–	–
COc1cc(C)c(S(=O)(=O)N(C)CCOCC(=O)N2CCC(Cc3ccccc3)(N(C)C)CC2)c(C)c1 [Compound 63, N-(2-(2-(4-benzyl-4-(dimethylamino)piperidin-1-yl)-2-oxoethoxy)ethyl)-4-methoxy-N,2,6-trimethylbenzenesulfonamide]	102	100	–	–
COc1cc(C)c(S(=O)(=O)N2CCC(OCC(=O)NC3CCC(Cc4ccccc4)(N4CCCC4)CC3)C2)c(C)c1 (centres unmarked) [Compound 166, N-(4-benzyl-4-(pyrrolidin-1-yl)cyclohexyl)-2-(1-(4-methoxy-2,6-dimethylphenylsulfonyl)pyrrolidin-3-yloxy)acetamide]	92	90	–	–
COc1cc(C)c(S(=O)(=O)N2CCCCC2COCC(=O)N(C)CCCC2CCC(CCc3ccccc3)(N3CCCC3)CC2)c(C)c1 (centres unmarked) [Compound 59, 2-((1-(4-methoxy-2,6-dimethylphenylsulfonyl)piperidin-2-yl)methoxy)-N-methyl-N-(3-(4-phenethyl-4-(pyrrolidin-1-yl)cyclohexyl)propyl)acetamide]	101	100	–	–
COc1cc(C)c(S(=O)(=O)N(C)CCOCC(=O)N(C)CCC2CCC(Cc3ccccc3)(N3CCCC3)CC2)c(C)c1 (centres unmarked) [Compound 39, N-(2-(4-benzyl-4-(pyrrolidin-1-yl)cyclohexyl)ethyl)-2-(2-(4-methoxy-N,2,6-trimethylphenylsulfonamido)ethoxy)-N-methylacetamide]	105	101	–	–
COc1cc(C)c(S(=O)(=O)N(C)CCOCC(=O)N(C)CCC2CCC(c3ccccc3)(N(C)C)CC2)c(C)c1 (centres unmarked) [Compound 72, N-(2-(4-(dimethylamino)-4-phenylcyclohexyl)ethyl)-2-(2-(4-methoxy-N,2,6-trimethylphenylsulfonamido)ethoxy)-N-methylacetamide]	103	99	–	–
COc1ccc(S(=O)(=O)N2CCCCC2CCOCC(=O)NC2CCC(c3ccccc3)(N(C)C)CC2)cc1 (centres unmarked) [Compound 19, N-(4-(dimethylamino)-4-phenylcyclohexyl)-2-(2-(1-(4-methoxyphenylsulfonyl)piperidin-2-yl)ethoxy)acetamide]	51	73	–	–
COc1cc(C)c(S(=O)(=O)N2CCCCC2COCC(=O)NCC2CCC(c3ccccc3)(N3CCOCC3)CC2)c(C)c1 (centres unmarked) [Compound 157, 2-((1-(4-methoxy-2,6-dimethylphenylsulfonyl)piperidin-2-yl)methoxy)-N-((4-morpholino-4-phenylcyclohexyl)methyl)acetamide]	76	99	–	–
CN1CCN(C2(c3cccc(F)c3)CCN(C(=O)COCC3CCCCN3S(=O)(=O)c3ccccc3C(F)(F)F)CC2)CC1 (centres unmarked) [Compound 225, 1-(4-(3-Fluorophenyl)-4-(4-methylpiperazin-1-yl)piperidin-1-yl)-2-((1-(2-(trifluoromethyl)phenylsulfonyl)piperidin-2-yl)methoxy)ethanone]	–	–	100	101
CN(CCC1CCC(c2ccccc2)(N2CCCC2)CC1)C(=O)CC(NS(=O)(=O)c1ccc2ccccc2c1)c1ccccc1 (centres unmarked) [Compound 40, N-methyl-3-(naphthalene-2-sulfonamido)-3-phenyl-N-(2-(4-phenyl-4-(pyrrolidin-1-yl)cyclohexyl)ethyl)propanamide]	103	101	–	–
COc1cc(C)c(S(=O)(=O)N2CCCCC2COCC(=O)N(C)CC2CCC(Cc3ccccc3)(N3CCN(C)CC3)CC2)c(C)c1 (centres unmarked) [Compound 143, N-((4-benzyl-4-(4-methylpiperazin-1-yl)cyclohexyl)methyl)-2-((1-(4-methoxy-2,6-dimethylphenylsulfonyl)piperidin-2-yl)methoxy)-N-methylacetamide]	103	111	–	–
O=C(COCC1CCCN1S(=O)(=O)c1c(Cl)cc(Cl)cc1Cl)NC1CCC(c2ccccc2)(N2CCCC2)CC1 (centres unmarked) [Compound 146, N-(4-phenyl-4-(pyrrolidin-1-yl)cyclohexyl)-2-((1-(2,4,6-trichlorophenylsulfonyl)pyrrolidin-2-yl)methoxy)acetamide]	64	108	–	–
COc1cc(C)c(S(=O)(=O)N(C)CCOCC(=O)N2CCC(c3cccc(F)c3)(N3CCN(C)CC3)CC2)c(C)c1 [Compound 210, N-(2-(2-(4-(3-Fluorophenyl)-4-(4-methylpiperazin-1-yl)piperidin-1-yl)-2-oxoethoxy)ethyl)-4-methoxy-N,2,6-trimethylbenzenesulfonamide]	100	101	–	–
COc1cc(C)c(S(=O)(=O)N(C)CCOCC(=O)N2CCC(c3ccccc3)(N3CCN(c4ccncc4)CC3)CC2)c(C)c1 [Compound 69, 4-methoxy-N,2,6-trimethyl-N-(2-(2-oxo-2-(4-phenyl-4-(4-(pyridin-4-yl)piperazin-1-yl)piperidin-1-yl)ethoxy)ethyl)benzenesulfonamide]	102	99	–	–
O=C(COCC1CCCN1S(=O)(=O)c1c(Cl)cc(Cl)cc1Cl)NC1CCC(Cc2ccccc2)(N2CCCC2)CC1 (centres unmarked) [Compound 156, N-(4-benzyl-4-(pyrrolidin-1-yl)cyclohexyl)-2-((1-(2,4,6-trichlorophenylsulfonyl)pyrrolidin-2-yl)methoxy)acetamide]	76	100	–	–
CN(CCCC1CCC(CCc2ccccc2)(N2CCCC2)CC1)C(=O)CC1CCCCN1S(=O)(=O)c1cccc(C(F)(F)F)c1 (centres unmarked) [Compound 134, N-methyl-N-(3-(4-phenethyl-4-(pyrrolidin-1-yl)cyclohexyl)propyl)-2-(1-(3-(trifluoromethyl)phenylsulfonyl)piperidin-2-yl)acetamide]	102	38	–	–
COc1cc(C)c(S(=O)(=O)N2CCCCC2COCC(=O)N(C)CCCC2CCC(c3ccccc3)(N3CCC3)CC2)c(C)c1 (centres unmarked) [Compound 205, N-(3-(4-(azetidin-1-yl)-4-phenylcyclohexyl)propyl)-2-((1-(4-methoxy-2,6-dimethylphenylsulfonyl)piperidin-2-yl)methoxy)-N-methylacetamide]	100	100	–	–
COc1cc(C)c(S(=O)(=O)N(C)CCOCC(=O)N(C)CC2CCC(CCc3ccccc3)(N3CCN(C)CC3)CC2)c(C)c1 (centres unmarked) [Compound 165, 2-(2-(4-methoxy-N,2,6-trimethylphenylsulfonamido)ethoxy)-N-methyl-N-((4-(4-methylpiperazin-1-yl)-4-phenethylcyclohexyl)methyl)acetamide]	103	90	–	–
